Data set [1] can be described thus: Heat stability of latanoprost (biological activity). In kind it is physicochemical. Conditions: on heating.
The conditions of data set [2]: cited from earlier work.

As for `CC(C)OC(=O)CCC/C=C\C[C@@H]1[C@@H](CC[C@@H](O)CCc2ccccc2)[C@H](O)C[C@@H]1O` [latanoprost], in data set [1], the “Temperature above which latanoprost begins to lose biological activity” value was “about 56 °C”. Besides, in data set [2], the “Solubility in acetone, ethanol, ethyl acetate, isopropanol, methanol and octanol” value was “freely soluble”; the Solubility in acetonitrile result is “very soluble”; the Solubility in water entry was “practically insoluble”.

(Values after patent US10463772B2, “Prostaglandin and prostamide drug delivery systems and intraocular therapeutic uses thereof” (ALLERGAN, INC., priority 2008, dated 2019).)
